Results: US4329473A, “Oxoalkanoic acid derivatives as inhibitors of angiotensin converting enzyme” (priority 1980, dated 1982)
Where a SMILES comes first, the peptide text is derived from it.

Test system: angiotensin converting enzyme
Assay: not given
Conditions: literature; cited from earlier work

Row | SMILES | inhibition of the converting enzyme (in words)
1 | C[C@H](NC(=O)[C@@H](N)Cc1ccccc1)C(=O)N1CCC[C@H]1C(=O)O [phenylalanyl-alanyl-proline] (H-Phe-Ala-Pro-OH) | substantial degree of activity

Molecular target: T1, porcine plasma angiotensin-converting enzyme (Sus scrofa, UniProt F1RRW5)
T1 construct: procine plasma angiotensin-converting enzyme; from tissue; host or cells: porcine plasma
T1 sequence (F1RRW5 34-1309): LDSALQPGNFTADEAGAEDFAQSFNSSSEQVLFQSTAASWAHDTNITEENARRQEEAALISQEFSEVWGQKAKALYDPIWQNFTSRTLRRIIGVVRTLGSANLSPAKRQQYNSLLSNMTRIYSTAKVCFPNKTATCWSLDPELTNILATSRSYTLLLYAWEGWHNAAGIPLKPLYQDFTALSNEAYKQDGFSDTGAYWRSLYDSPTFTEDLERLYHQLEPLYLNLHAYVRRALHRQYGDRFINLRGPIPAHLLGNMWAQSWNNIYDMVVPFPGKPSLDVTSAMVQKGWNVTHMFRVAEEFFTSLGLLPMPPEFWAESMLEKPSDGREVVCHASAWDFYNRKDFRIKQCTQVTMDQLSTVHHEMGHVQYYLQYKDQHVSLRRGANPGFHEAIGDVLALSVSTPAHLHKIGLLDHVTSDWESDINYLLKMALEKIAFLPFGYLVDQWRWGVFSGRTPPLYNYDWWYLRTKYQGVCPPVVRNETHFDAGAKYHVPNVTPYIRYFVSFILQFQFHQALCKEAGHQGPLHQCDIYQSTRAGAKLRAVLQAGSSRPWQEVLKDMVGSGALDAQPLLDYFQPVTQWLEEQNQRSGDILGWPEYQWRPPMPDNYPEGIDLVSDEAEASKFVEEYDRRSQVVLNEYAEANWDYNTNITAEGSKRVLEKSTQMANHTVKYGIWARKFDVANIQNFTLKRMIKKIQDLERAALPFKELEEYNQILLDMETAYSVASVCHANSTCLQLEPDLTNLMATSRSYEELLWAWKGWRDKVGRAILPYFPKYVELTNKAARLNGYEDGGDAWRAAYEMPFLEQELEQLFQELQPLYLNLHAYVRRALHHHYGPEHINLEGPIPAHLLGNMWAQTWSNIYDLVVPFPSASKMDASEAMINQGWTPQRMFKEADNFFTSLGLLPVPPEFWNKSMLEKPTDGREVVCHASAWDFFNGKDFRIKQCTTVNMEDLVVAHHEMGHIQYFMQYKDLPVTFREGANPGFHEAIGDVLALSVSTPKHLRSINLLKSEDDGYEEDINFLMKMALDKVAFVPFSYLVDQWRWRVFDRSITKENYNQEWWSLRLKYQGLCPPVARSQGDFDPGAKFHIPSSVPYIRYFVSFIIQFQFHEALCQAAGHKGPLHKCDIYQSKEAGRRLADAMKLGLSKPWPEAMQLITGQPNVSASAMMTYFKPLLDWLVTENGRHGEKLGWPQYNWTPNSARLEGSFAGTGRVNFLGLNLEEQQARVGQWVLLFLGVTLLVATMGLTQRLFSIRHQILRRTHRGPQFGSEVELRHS
Assay: Angiotensin Converting Enzyme Inhibition Assay
Type: biochemical
Conditions: compared with Captopril / other examples, Table II
Experimental: Said assay is described in the literature as follows: B. S. Tsai, M. J. Peach, M. C.
The Angiotensin Converting Enzyme Inhibition Assay represents a test procedure in which various compounds are tested for their ability to inhibit the conversion of the decapeptide angiotensin I or the tripeptide hippuryl-histidyl-leucine to its cleavage product, the dipeptide histidyl-leucine. This dipeptide is detected via its fluorescent condensation product with o-phthaladehyde.
For testing the effect of inhibitors on procine plasma angiotensin-converting enzyme, two assays were run in parallel. One contained the substrate (1-2 mM), enzyme (1 mg) and various concentrations (1 nM-10 mM) of an inhibitor, the other contained only the substrate and enzyme. The assays were conducted in sodium phosphate buffer, pH 7.6, under the conditions described in the article by Tsai, et al., supra.

Row | effectiveness in angiotensin converting enzyme inhibition assay (in words) | SMILES
2 | most effective compound | CC(CC(=O)C(Cc1ccccc1)NC(=O)c1ccccc1)C(=O)N1CCC[C@H]1C(=O)O (stereo partly drawn) [Example XIII, 5-Benzamido-4-oxo-2-methyl-6-phenylhexanoyl-L-proline]

Same assay, conditions: sodium phosphate buffer, pH 7.6; substrate 1-2 mM; inhibitor 1 nM-10 mM

Row | SMILES | IC50 [nM]
3 | CCCCOC(=O)NC(Cc1ccccc1)C(=O)CC(C)C(=O)N1CCC[C@H]1C(=O)O (stereo partly drawn) [Example XVII, 5-n-Butyloxycarbonylamino-4-oxo-2-methyl-6-phenylhexanoyl-L-proline] | 33
4 | O=C(NC(Cc1ccc(OCc2ccccc2)cc1)C(=O)CCC(=O)N1CCC[C@H]1C(=O)O)c1ccccc1 (stereo partly drawn) [Example IX, 5-Benzamido-4-oxo-6-p-benzyloxyphenylhexanoyl-L-proline] | 10
5 | CCCCCC(=O)NC(Cc1ccccc1)C(=O)CCC(=O)N1CCC[C@H]1C(=O)O (stereo partly drawn) [Example XIX, 5-n-Hexanoylamino-4-oxo-6-phenylhexanoyl-L-proline] | 47
6 | O=C(NC(Cc1ccccc1)C(=O)CCC(=O)N1CCC[C@H]1C(=O)O)OCc1ccccc1 (stereo partly drawn) [Example III, 5-Benzyloxycarbonylamino-4-oxo-6-phenylhexanoyl-L-proline] | 240
7 | O=C(NC(Cc1ccccc1)C(=O)CCC(=O)N1CCC[C@H]1C(=O)O)c1ccncc1 (stereo partly drawn) [IV, 5-(4-Pyridyl)carbonylamino-4-oxo-6-phenylhexanoyl-L-proline] | 20
8 | O=C(NC(Cc1cccnc1)C(=O)CCC(=O)N1CCC[C@H]1C(=O)O)c1ccccc1 (stereo partly drawn) [Example XI, 5-Benzamido-4-oxo-6-(3-pyridyl)hexanoyl-L-proline] | 5.7
9 | O=C(NC(Cc1ccc(O)cc1)C(=O)CCC(=O)N1CCC[C@H]1C(=O)O)c1ccccc1 (stereo partly drawn) [Example X, 5-Benzamido-4-oxo-6-p-hydroxyphenylhexanoyl-L-proline] | 4.7
10 | CCCCOC(=O)NC(Cc1ccccc1)C(=O)CCC(=O)N1CCC[C@H]1C(=O)O (stereo partly drawn) [Example XV, 5-n-Butyloxycarbonylamino-4-oxo-6-phenylhexanoyl-L-proline] | 210
11 | O=C(NC(Cc1ccccc1)C(=O)CCC(=O)N1CCC[C@H]1C(=O)O)c1ccco1 (stereo partly drawn) [Example V, 5-(2-Furoylamino)-4-oxo-6-phenylhexanoyl-L-proline] | 1.4

Further lines, results first:

Row | IC50 [nM] | SMILES
12 | 1.4 | COc1ccc(CC(NC(=O)c2ccccc2)C(=O)CCC(=O)N2CCC[C@H]2C(=O)O)cc1OC (stereo partly drawn) [VIII, 5-Benzamido-4-oxo-6-(3,4-dimethoxyphenyl)hexanoyl-L-proline]
13 | 330 | CC(=O)NC(Cc1ccccc1)C(=O)CCC(=O)N1CCC[C@H]1C(=O)O (stereo partly drawn) [XVIII, 5-Acetylamino-4-oxo-6-phenylhexanoyl-L-proline]
14 | 230 | CC(C)C(CC(=O)C(Cc1ccccc1)NC(=O)c1ccccc1)C(=O)N1CCC[C@H]1C(=O)O (stereo partly drawn) [XIV, 5-Benzamido-4-oxo-2-isopropyl-6-phenylhexanoyl-L-proline]
15 | 6500 | CCCCCCCCCC(=O)NC(Cc1ccccc1)C(=O)CCC(=O)N1CCC[C@H]1C(=O)O (stereo partly drawn) [XXI, 5-n-Decanoylamino-4-oxo-6-phenylhexanoyl-L-proline]
16 | 46 | Cc1ccccc1C(=O)NC(Cc1ccccc1)C(=O)CCC(=O)N1CCC[C@H]1C(=O)O (stereo partly drawn) [VII, 5-O-Toluoylamino-4-oxo-6-phenylhexanoyl-L-proline]
17 | 650 | CCCCCCCC(=O)NC(Cc1ccccc1)C(=O)CCC(=O)N1CCC[C@H]1C(=O)O (stereo partly drawn) [XX, 5-n-Octanoylamino-4-oxo-6-phenylhexanoyl-L-proline]
18 | 20 | O=C(CCC(=O)N1CCC[C@H]1C(=O)O)C(Cc1ccccc1)NC(=O)C1CCCO1 (stereo partly drawn) [VI, 5-(2-Tetrahydrofuroylamino)-4-oxo-6-phenylhexanoyl-L-proline]
